Data on two compounds can be found in publication PMC7497679, “Structure-based design, synthesis, and evaluation of the biological activity of novel phosphoroorganic small molecule IAP antagonists” (Investigational New Drugs, 2020).

Holding throughout (assay): Antiproliferative activity, SRB method
Holding throughout (assay type): cell-based, human
(Sulforhodamine B stains cellular protein and so reports cell mass.)

The test system of one experiment is MCF-10A. As to conditions: Homo sapiens, MCF-10A, 10 µM, 72 h, read-out: mean proliferation inhibition at highest concentration used, MCF-10A. From the text:
(§1) MDA-MB-231 (human breast cancer), MCF10A (human, nontumorigenic mammary gland epithelial cells), A549 (human nonsmall-cell lung cancer), UMUC-3 (human bladder cancer) and LoVo (human colon cancer) cell lines were obtained from the American Type Culture Collection (ATCC; Rockville, Maryland, USA). The MCF-7 cell line (human breast cancer) was obtained from the European Collection of Cell Cultures (ECACC; Salisbury, UK). All cell lines were maintained at the Hirszfeld Institute of Immunology and Experimental Therapy (HIIET), Wrocław, Poland. MDA-MB-231 cells were cultured in RPMI1640 medium (Thermo Fisher Scientific, Warszawa, Poland) supplemented with 2 mM L-glutamine, 1 mM sodium pyruvate, and 10% fetal bovine serum (all from Sigma-Aldrich, Poznań, Poland). The MCF10A cell line was cultured in Ham’s F12 medium with glutamine (Corning) supplemented with 5% (v/v) fetal bovine serum (FBS), 5% (v/v) horse serum, 10 µg/mL insulin, 0.05 µg/mL cholera toxin, 0.5 µg/mL hydrocortisone, and 20 ng/mL hEGF (all from Sigma-Aldrich). A549 and LoVo cells were cultured in a 1:1 (v/v) mixture of RPMI1640 and Opti-MEM (both from HIIET) supplemented with 5% (v/v) FBS and 2 mM L-glutamine. The UMUC-3 cell line was cultured in high glucose DMEM (Thermo Fisher Scientific) supplemented with 10% FBS and 2 mM Lglutamine. The MCF-7 line was cultured in Eagle’s minimal essential medium (EMEM; Thermo Fisher Scientific) supplemented with 10% (v/v) FBS, 2 mM L-glutamine, 1% (v/v) nonessential amino acids, and 8 µg/mL insulin (all from Sigma-Aldrich). All culture media contained 100 µg/mL streptomycin (Sigma-Aldrich) and 100 U/mL penicillin (Polfa Tarchomin SA, Warszawa, Poland). The cells were grown at 37 °C in a humid atmosphere saturated with 5% CO2.
(§2) Antiproliferative activity was assessed in six cell lines utilizing the sulforhodamine B (SRB) method. Briefly, cells were seeded in 96-well plates (Sarstedt, Warszawa, Poland) at a density of 5 × 10^3 cells/well, and after overnight incubation, the cells were exposed to compounds at various concentrations. After 72 h, the plates were fixed with 50% (v/v) TCA (all from Sigma-Aldrich), washed with tap water, and the precipitated proteins were labeled with 0.1% (w/v) SRB solution in 1% (v/v) AcOH. Next, the plates were washed with 1% (v/v) AcOH, and the remaining SRB dye was solubilized with 10 mM unbuffered TRIS solution. The absorbance was measured using a Biotek Hybrid H4 reader (BioTek Instruments, VT, USA) at 540 nm. Crude results were analyzed using a previously described method, and the results are expressed as the IC50 (compound concentration that reduced cell growth by 50%) compared to the vehicletreated control (0.1% (v/v) DMSO). The samples were analyzed in triplicate, and each experiment was repeated at least three times.

In a further experiment the test system is A549. As to conditions: Homo sapiens, A549, 10 µM, 72 h, read-out: mean proliferation inhibition at highest concentration used, A549.
Excerpt: as §1, §2

Another experiment relates to MDA-MB-231. The note with it: Homo sapiens, MDA-MB-231, 72 h, read-out: IC50 ± SD (n = 3) MDA-MB-231.
Excerpt: as §1, §2

In a further experiment the test system is LoVo. The note with it: Homo sapiens, LoVo, 10 µM, 72 h, read-out: mean proliferation inhibition at highest concentration used, LoVo.
Excerpt: as §1, §2

The next experiment concerns MCF-7. As to conditions: Homo sapiens, MCF7, 10 µM, 72 h, read-out: mean proliferation inhibition at highest concentration used, MCF-7.
Excerpt: as §1, §2

The next experiment concerns UMUC-3. The note with it: Homo sapiens, UMUC3, 10 µM, 72 h, read-out: mean proliferation inhibition at highest concentration used, UMUC-3.
Excerpt: as §1, §2

As a reminder, the IC50 is the concentration that inhibits the measured activity by half. Take `CN[C@@H](C)C(=O)N[C@H](C(=O)N1CCC[C@H]1C(=O)NC(Cc1ccccc1)P(=O)(Oc1ccccc1)Oc1ccccc1)C(C)C` (stereo partly drawn) [Compound 41, diphenyl (1-((S)-1-((S)-3-methyl-2-((S)-2-(methylamino)propanamido)butanoyl)pyrrolidine-2-carboxamido)-2-phenylethyl)phosphonate]: the inhibition at 10 µM in the experiment on MCF-10A worked out at 2%; in the experiment on A549, 10%; with LoVo it was 11%; in the experiment with MCF-7 it was 20%; with UMUC-3, 5%. For the same compound, the IC50 with MDA-MB-231 was determined as 2580 ± 320 nM.

In the case of `CN[C@@H](C)C(=O)N[C@H](C(=O)N1CCC[C@H]1C(=O)NC(Cc1ccccc1)P(=O)(Oc1ccccc1)Oc1ccccc1)C1CCCCC1` (stereo partly drawn) [Compound 42, diphenyl (1-((S)-1-((S)-2-cyclohexyl-2-((S)-2-(methylamino)propanamido)acetyl)pyrrolidine-2-carboxamido)-2-phenylethyl)phosphonate], the inhibition at 10 µM in the experiment with MCF-10A was 2%; in the experiment on A549, 23%; in the experiment on LoVo it was 12%; with MCF-7, 16%; with UMUC-3, 6%. For the same compound, the half-maximal inhibitory concentration (IC50) in the experiment with MDA-MB-231 was found to be 2460 ± 380 nM.
